Laboratory results published in US12728111B2, “Electrophilic compounds and electrophilic prodrugs for treating aneurysm” (University of Pittsburgh—Of the Commonwealth System of …, priority 2020, dated 2026).
pIC50: −log10 of the molar value.

What was measured:
EP4 Gs-coupled receptor = biological target: T1, EP4 Gs-coupled receptor (Homo sapiens, UniProt P35408); experiment: cAMP HTRF assay in 293T cells overexpressing EP4; assay type: cell-based; settings: read-out: best-fit IC50, reduction of PGE2-induced recruitment of cAMP
T1 construct: expressed in transfected cells; host or cells: 293T cells
Method: (§1) FIG. 4. NO2—OA inhibits PGE2-dependent EP4 cAMP downstream signaling. (A) Three parameters nonlinear regression of EP4 global fitting dose-response curve. […] (B) HTRF assay of cAMP-Gs coupled receptor. […] (D) Representative figure of gelatin zymography indicating MMP 2/9 activity. BMDMs were incubated with L-902,688 (100 nM) plus vehicle, OA (2.5 μM) or NO2—OA (2.5 μM) for 12 h, and MMP 2&9 activity was measured by gelatin zymography. For (A) and (B), three or four parameters, global or separate fitting, constraints, and the significance of EC50 were determined in Prism. Data presented as mean±SEM. A p<0.05 was considered statistically significant.
Cells at 80% density were incubated on plates coated with transfection complex containing human EP4 receptors and a cAMP response element-regulated secreted alkaline phosphatase (SEAP) reporter. Activation of EP4 was quantified by adding a luminance-based alkaline phosphatase substrate and read in a chemiluminescence plate reader relative to the kit's standards. EP4 Inhibition assay was performed using cAMP-Gs HiRange kit (#62AM6PEB, Cisbio) following the manufacture's protocol and measured by Neo2 plate reader (BioTek, Winooski, Vt.). HTRF ratio (665/620) was converted to cAMP concentration using a cAMP standard.

MMP2 = experiment: Gelatin zymography in BMDMs, MMP2; assay type: cell-based, mouse; settings: 2.5 μM, 12 h
Method: as §1
Freshly differentiated BMDMs were cultured in the bone marrow macrophage-differentiation media until 80% confluence. […] Then, the supernatant was collected and centrifuged to remove any residual debris. Measurement of MMP2 and MMP9 activity was performed by running the supernatant (using detergent-free loading buffer) in 1% gelatin gel, followed by staining with Coomassie blue.

p65 (NFκB) = experiment: oxLDL-induced p65 nuclear translocation in BMDMs (western blot); assay type: cell-based, mouse; settings: 2.5 μM pretreatment 1 h, oxLDL 50 μg/ml 1 h
Method: FIG. 3. NO2—OA prevents oxLDL-induced NFκB activation and pro-inflammatory cytokine production. Primary BMDMs were pretreated with vehicle, OA (2.5 μM) or NO2—OA (2.5 μM) for 1 h, followed by treatment of oxLDL (50 to 100 μg/ml) for the indicated times. (A, B) Nuclear (A) and cytoplasmic protein (B) fractions were isolated 1 h after oxLDL treatment and subjected to western blot with antibodies against p65, lamin a/c (nuclear marker) and GAPDH (cytosolic marker). Representative western blot images of three independent experiments are shown. (C) Quantification of the p65 nuclear to cytoplasmic ratio by image studio (normalized by the internal control, n=3). (D-F) Following 8 h of oxLDL treatment, levels of IL6, MCP1 and TNFα in the cell medium were measured by ELISA (n=4). (G) Real-time PCR quantification of gene expression levels of IL1b and Mmp9 in total mRNA extracted from the BMDMs. […]
Nuclear/cytoplasm protein extraction, co-Immunoprecipitation and immunoblotting NE-PER™ Nuclear and Cytoplasmic Extraction Reagents (#78835, ThermoFisher) were used for nuclear and cytoplasmic protein extraction. […] Membranes were blocked by 5% BSA and incubated with the primary antibody at 4° C. overnight followed by incubation with fluorescence conjugated secondary antibody for 1 h at room temperature. Band intensity was collected with the Odyssey® CLx Imaging System and quantified using Image Studio™ Lite.

T1 sequence (P35408 whole entry): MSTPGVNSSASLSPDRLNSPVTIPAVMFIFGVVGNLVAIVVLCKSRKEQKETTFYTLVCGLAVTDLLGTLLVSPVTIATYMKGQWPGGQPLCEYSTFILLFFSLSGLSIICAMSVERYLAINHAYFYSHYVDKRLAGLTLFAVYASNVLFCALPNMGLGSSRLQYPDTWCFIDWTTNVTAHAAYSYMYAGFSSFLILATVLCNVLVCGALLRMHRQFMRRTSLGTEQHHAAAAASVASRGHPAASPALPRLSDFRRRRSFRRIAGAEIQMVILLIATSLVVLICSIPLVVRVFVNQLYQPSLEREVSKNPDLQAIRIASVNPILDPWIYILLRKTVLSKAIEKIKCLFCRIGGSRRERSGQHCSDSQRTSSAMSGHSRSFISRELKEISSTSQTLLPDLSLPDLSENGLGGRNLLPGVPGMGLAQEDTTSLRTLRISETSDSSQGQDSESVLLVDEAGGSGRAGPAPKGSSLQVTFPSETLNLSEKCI

Structure (SMILES): CCCCCCCCC(=CCCCCCCCC(=O)O)[N+](=O)[O-] [NO2—OA, 10-nitro-octadec-9-enoic acid]
- pIC50 (EP4 Gs-coupled receptor): 5.55
- MMP2 activity (gelatin zymography) (MMP2): no significant changes
- p65 nuclear to cytoplasmic ratio (p65 (NFκB)): 14.10±1.92
